Data reported in ChEMBL document CHEMBL3352491, “Novel semicarbazides and ureas of primaquine with bulky aryl or hydroxyalkyl substituents: synthesis, cytostatic and antioxidative activity” (Eur J Med Chem, 2014).

How the values were obtained:
[1] = Antioxidant activity assessed as DPPH scavenging activity at 100 uM after 60 mins by spectrophotometry; assay type: physicochemical; settings: 1 h
SW-620 = test: Cytostatic activity against human SW620 cells assessed as growth inhibition after 3 to 4 days by MTT assay; assay type: functional, cell-based
[2] = Antioxidant activity assessed as DPPH scavenging activity at 100 uM after 20 mins by spectrophotometry; assay type: physicochemical
L1210 = test: Cytostatic activity against mouse L1210 cells assessed as growth inhibition after 3 to 4 days by MTT assay; assay type: functional, cell-based
[3] = Cytostatic activity against human H460 cells assessed as growth inhibition after 3 to 4 days by MTT assay; assay type: functional, cell-based; settings: NCI-H460
MCF7 = test: Cytostatic activity against human MCF7 cells assessed as growth inhibition after 3 to 4 days by MTT assay; assay type: functional, cell-based
[4] = Cytostatic activity against human MIAPaCa2 cells assessed as growth inhibition after 3 to 4 days by MTT assay; assay type: functional, cell-based; settings: MIA PaCa-2
HeLa = test: Cytostatic activity against human HeLa cells assessed as growth inhibition after 3 to 4 days by MTT assay; assay type: functional, cell-based
CCRF-CEM = test: Cytostatic activity against human CEM cells assessed as growth inhibition after 3 to 4 days by MTT assay; assay type: functional, cell-based
[5] = Antioxidant activity assessed as inhibition of lipid peroxidation at 100 uM by spectrophotometry; assay type: physicochemical
[6] = Cytostatic activity against human Molt4/C8 cells assessed as growth inhibition after 3 to 4 days by MTT assay; assay type: functional, cell-based; settings: MOLT-4
[7] = target: Lipoxygenase (Glycine max) (UniProt Q39829); test: Inhibition of soybean LOX using sodium linoleate as substrate at 100 uM by spectrophotometry
Lipoxygenase = Lipoxygenase (Glycine max, UniProt Q39829); test: Inhibition of soybean LOX using sodium linoleate as substrate by spectrophotometry

| SMILES | Activity [1] | IC50 (SW-620) [µM] | Activity [2] | IC50 (L1210) [µM] | IC50 (MCF7) [µM] | IC50 (HeLa) [µM] | IC50 (CCRF-CEM) [µM] | inhibition (INH) [5] | inhibition [7] [%] | IC50 (Lipoxygenase) | IC50 (Lipoxygenase; read-out: IC50) [µM] | IC50 [3] [µM] | IC50 [4] [µM] | IC50 [6] [µM] |
| --- | --- | --- | --- | --- | --- | --- | --- | --- | --- | --- | --- | --- | --- | --- |
| COc1cc(NC(C)CCCNC(=O)NNC(=O)NCCCCCO)c2ncccc2c1 (stereo not drawn) | 32% | > 100 | 14% | > 250 | 4 | ≥ 250 | 170 | 54% | 4 | – | – | > 100 | 168 | ≥ 250 |
| Cc1c(C)c2c(c(C)c1O)CCC(C)(C(=O)O)O2 (stereo not drawn) [TROLOX] | – | – | – | – | – | – | – | 63% | – | – | – | – | – | – |
| COc1cc(NC(C)CCCNC(=O)NNC(=O)Nc2ccc(Cl)c(C(F)(F)F)c2)c2ncccc2c1 (stereo not drawn) | 90% | 15 | 64% | 19 | 2 | 17 | 14 | 63% | – | Not Active | – | 13 | 18 | 19 |
| COc1ccc(C(=NNC(=O)NNC(=O)NCCCC(C)Nc2cc(OC)cc3cccnc23)c2ccc(OC)cc2)cc1 (stereo not drawn) | 84% | ≥ 100 | 37% | 7.5 | 1 | 50 | 8 | 82% | – | – | 75 | 5 | 11 | 12 |
| COc1ccc(C(=NNC(=O)NCCCC(C)Nc2cc(OC)cc3cccnc23)c2ccc(OC)cc2)cc1 (stereo not drawn) | 14% | > 100 | 5% | > 250 | 6 | > 250 | > 250 | 98% | – | – | 60 | > 100 | > 250 | > 250 |
| COc1cc(NC(C)CCCNC(=O)NNC(=O)NCCCC(C)Nc2cc(OC)cc3cccnc23)c2ncccc2c1 (stereo not drawn) | 37% | > 100 | 18% | 92 | 0.2 | 67 | 87 | 65% | 31 | – | – | 94 | 69 | ≥ 250 |
| O=C(NC(c1ccccc1)c1ccc(Cl)cc1)NC(c1ccccc1)c1ccc(Cl)cc1 (stereo not drawn) | Not Active | > 100 | Not Active | 250 | > 100 | > 250 | > 250 | 33% | 38 | – | – | > 100 | 97 | > 250 |
| COc1cc(NC(C)CCCNC(=O)NCCNC(c2ccccc2)(c2ccccc2)c2ccccc2)c2ncccc2c1 (stereo not drawn) | 12% | 54 | Not Active | 40 | 45 | 38 | 10 | 89% | – | – | 93 | > 100 | 40 | 210 |
| CCOC(=O)N(C)C(c1ccccc1)c1ccccc1 | Not Active | 27 | Not Active | 96 | 26 | 80 | 108 | Not Active | – | – | – | ≥ 100 | 94 | 105 |
| COc1cc(NC(C)CCCNC(=O)NN)c2ncccc2c1 (stereo not drawn) | 82% | > 100 | 61% | > 250 | 16 | ≥ 250 | > 250 | 70% | 42 | – | – | > 100 | ≥ 250 | ≥ 250 |
| COc1cc(NC(C)CCCNC(=O)NNC(=O)N(CCO)CCO)c2ncccc2c1 (stereo not drawn) | 45% | > 100 | 25% | > 250 | 29 | > 250 | > 250 | 43% | 30 | – | – | > 100 | > 250 | > 250 |

Continued, in another order:

| Activity [1] | IC50 (SW-620) [µM] | Activity [2] | IC50 (L1210) [µM] | IC50 (MCF7) [µM] | IC50 (HeLa) [µM] | IC50 (CCRF-CEM) [µM] | inhibition (INH) [5] | inhibition [7] [%] | IC50 (Lipoxygenase) | IC50 (Lipoxygenase; read-out: IC50) [µM] | SMILES | IC50 [3] [µM] | IC50 [4] [µM] | IC50 [6] [µM] |
| --- | --- | --- | --- | --- | --- | --- | --- | --- | --- | --- | --- | --- | --- | --- |
| 32% | > 100 | 20% | 92 | 6 | > 250 | 5 | 89% | 6 | – | – | COc1cc(NC(C)CCCNC(=O)NCCCC(C)Nc2cc(OC)cc3cccnc23)c2ncccc2c1 (stereo not drawn) | > 100 | 186 | > 250 |
| 40% | > 100 | 18% | > 250 | 28 | > 250 | > 250 | 49% | 6 | – | – | COc1cc(NC(C)CCCNC(=O)NNC(=O)NC(CO)(CO)CO)c2ncccc2c1 (stereo not drawn) | > 100 | > 250 | > 250 |
| 41% | 7 | 30% | 6.2 | 2 | 10 | 4.2 | 88% | – | – | 100 | COc1cc(NC(C)CCCNC(=O)NNC(=O)NCCNC(c2ccccc2)(c2ccccc2)c2ccccc2)c2ncccc2c1 (stereo not drawn) | 4 | 5 | 8 |
| Not Active | ≥ 100 | Not Active | 68 | 63 | 102 | 27 | 20% | 6 | – | – | O=C1NCCN1C(c1ccccc1)(c1ccccc1)c1ccccc1 | > 100 | 31 | 21 |
| 47% | > 100 | 24% | ≥ 250 | ≥ 100 | 174 | 127 | 7% | – | – | – | CN(C(=O)NN)C(c1ccccc1)c1ccccc1 | > 100 | 127 | 144 |
| 16% | > 100 | 20% | 6.7 | 9 | 121 | 5.2 | 79% | – | – | – | COc1cc(NC(C)CCCNC(=O)N(C)C(c2ccccc2)c2ccccc2)c2ncccc2c1 (stereo not drawn) | ≥ 100 | 21 | 10 |
| Not Active | > 100 | Not Active | > 250 | > 100 | > 250 | > 250 | 21% | – | – | – | CCOC(=O)NC(c1ccccc1)c1ccc(Cl)cc1 (stereo not drawn) | > 100 | 142 | > 250 |
| Not Active | ≥ 100 | 3% | 15 | 23 | 25 | 24 | 76% | – | – | 87.5 | CN(C(=O)n1nnc2ccccc21)C(c1ccccc1)c1ccccc1 | 27 | 26 | 28 |
| 20% | > 100 | Not Active | > 250 | 13 | 196 | > 250 | 27% | – | Not Active | – | COc1cc(NC(C)CCCNC(=O)NNC(=O)NCCO)c2ncccc2c1 (stereo not drawn) | > 100 | ≥ 250 | > 250 |
| 21% | 23 | 20% | 3.6 | 4 | 3.9 | 3.1 | 61% | 43 | – | – | COc1cc(NC(C)CCCNC(=O)Nc2ccc(Cl)c(C(F)(F)F)c2)c2ncccc2c1 (stereo not drawn) | 28 | 4 | 3.4 |
| 12% | 23 | 24% | 67 | 42 | 87 | 116 | 63% | 28 | – | – | O=C(NC(c1ccccc1)c1ccc(Cl)cc1)n1nnc2ccccc21 (stereo not drawn) | 18 | 110 | 176 |
| 73% | 27 | 44% | 16 | 5 | 22 | 10 | 69% | 44 | – | – | COc1cc(NC(C)CCCNC(=O)NNC(=O)N(C)C(c2ccccc2)c2ccccc2)c2ncccc2c1 (stereo not drawn) | 16 | 18 | 19 |
| 27% | > 100 | 14% | ≥ 250 | ≥ 100 | 182 | 217 | 52% | 9 | – | – | NNC(=O)NC(c1ccccc1)c1ccc(Cl)cc1 (stereo not drawn) | > 100 | 178 | ≥ 250 |
